Entries after “also recorded” stand apart in the source; their conditions may differ. *1 amine or outer side, *2 acyl side, *3 side chain or, on linkers, in order; H or OH if unused. Where a SMILES comes first, the peptide text is derived from it. Bridges are numbered along the chain shown (N, C = ends). Roman numbers before positions name the chains, in order. [ ]: non-standard residue; d: D form. Actinocin(9to1) = Cc1c2oc3c(C)ccc(C(=O)[*:1])c3nc-2c(C(=O)[*:2])c(N)c1=O; NMeV = CN[C@H](C(=O)O)C(C)C; Sar = CNCC(=O)O
Tests used:
mtPTP [1] = experiment: Ca++-activation of the mtPTP in liver mitochondria, irreversible release of TPP+; type: biochemical, mouse
Experimental: The mitochondria were energized with succinate in the presence of TPP^+. TPP^+ is accumulated into the mitochondrial matrix in proportion to ΔP, and its concentration in the suspension medium is monitored using a TPP^+ sensitive electrode. Aliquots of Ca^++ are then added to the reaction solution, with each addition causing a transient release of TPP^+ as the Ca^++ is taken into the mitochondria at the expense of ΔP. […] At this juncture, ΔP collapses and the mitochondrial TPP^+ is irreversibly released into the suspension medium. The amount of Ca^++ required to cause irreversible release of TPP^+ provides a quantitative measurement of mtPTP sensitivity.
To determine if the ANTs provide a regulatory function for the mtPTP, ANT-deficient and control liver mitochondria were loaded with TPP^+ and then Ca^++ was added in the presence or absence of various mtPTP effectors until the TPP^+ was irreversibly released. The relative levels of Ca^++ required for permeability transition were then compared.
The calcium sensitivity of the mtPTP was calculated from 10 nmol CaCl2 additions to a reaction vessel containing 1 mg of mitochondrial protein in 1.0 ml of 250 mM sucrose, 10 mM MOPS, 2 mM K2HPO4, pH 7.2, and 5 mM succinate. Irreversible release of TPP^+ from the mitochondria was indicative of mtPTP activation.

liver mitochondria = experiment: ADP stimulation of respiration in liver mitochondria (oxygen consumption, succinate); type: biochemical, mouse; settings: liver mitochondria from Ant1−/−, Ant2fl/Y, Alb-Cre (ANT-deficient) animals
Experimental: FIGS. 6A and 6B show ANT1 and ANT2 expression and respiration of control and ANT-deficient liver mitochondria. Liver mitochondria were isolated from Ant1^−/−, Ant2^fl/Y (ANT-control) or Ant1^−/−, Ant2^fl/Y, Alb-cre (ANT-deficient) mice. FIG. 6A: Western blot analysis using antibodies against ANT1 (left) and ANT2 (right). Heart mitochondria were used as a positive control for the presence of ANT1. ANT1 and ANT2, 30 kDa. FIG. 6B: Oxygen consumption was measured using succinate as substrate in ANT-control (left) and ANT-deficient (right) mitochondria. MITOS, addition of 600 μg of mitochondrial protein. ADP, 125 nmol ADP; FCCP (uncoupler), 75 nM.
Respiration and oxidative phosphorylation enzyme activities were measured polarographically and spectrophotometrically (42). The membrane potential was calculated from the mitochondrial uptake of TPP^+ using a TPP^+ sensitive electrode (44-47). The mtPTP was examined in liver 10-week-old Ant1^−/− or +/+, Ant2^fl/Y, Alb-Cre +/− animals.

mouse hepatocytes = experiment: Induction of apoptosis in primary hepatocytes, apoptotic nuclei by Hoechst 33258 staining; type: cell-based; settings: ANT-deficient and ANT-control hepatocytes; agent alone; 12 h
Experimental: Primary hepatocytes from ANT-deficient and ANT-control mice were cultured on collagen-coated cover glasses and treated with Fas ligand and Actinomycin D. After 12 h, cells were stained with Hoechst 33258 and images were acquired with a Zeiss Axio-10 fluorescence microscope. Cells with chromatin condensation and nuclei fragmentation were counted as apoptotic.
Hepatocytes were isolated from 12 to 15 month old anesthetized mice, perfused in situ with collagenase-dispase medium (Invitrogen, Carlsbad, Calif.). The hepatocytes were gently released, filtered and cultured on collagen coated cover glasses or plates in Waymouth's MB-752/1 medium containing 27 mM NaHCO3, 2 mM L-glutamine, 10% fetal calf serum, 0.5 μg/ml insulin, 0.5 μg/ml transferrin, 0.5 ng/ml sodium selenate and 100 nM dexamethasone (49). […]
Fas ligand-TNFα+Actinomycin D induced apoptosis was monitored by detection of apoptotic nuclei by staining with 10 μg/ml of Hoechst 33258 (Molecular Probes, Eugene, Oreg.) (9). Br-A23187-induced cell death after 1 h treatment was monitored by measuring the percentage of lactate dehydrogenase (LDH) released into the culture medium as a percentage of the activity in a Triton X-100 total cell lysate.

mtPTP [2] = settings: ANT-deficient and ANT-control mitochondria; 1 μM FCCP in the presence of Ca++
Experimental: To determine if the mtPTP could still exist in the absence of ANT, we isolated mitochondria from livers of Ant1^−/−, Ant2^fl/Y, Alb-Cre (ANT-deficient) and Ant1^−/−, Ant2^fl/Y (ANT-control) mice. […] The opening of the pore was monitored by following mitochondrial swelling through decreased light scattering.
Mitochondria (1 mg protein) were incubated in 1.5 ml of the above reaction medium with 16.5 nmol CaCl2. After two minutes 0.1 uM ruthenium red was added followed by FCCP.

[3] = ANT-control (Ant1−/−, Ant2fl/Y) liver mitochondria
[4] = ANT-deficient (Ant1−/−, Ant2fl/Y, Alb-Cre) liver mitochondria

| Compound | effect on Ca++ activation of the mtPTP (Ca++ required for permeability transition) (mtPTP [1]; [3]) | effect on Ca++ activation of the mtPTP (Ca++ required for permeability transition) (mtPTP [1]; [4]) | other results |
| --- | --- | --- | --- |
| Nc1ncnc2c1ncn2[C@@H]1O[C@H](COP(=O)(O)OP(=O)(O)O)[C@@H](O)[C@H]1O [ADP, adenosine diphosphate] | strongly inhibited | no effect; also recorded: without effect | stimulation of mitochondrial respiration (liver mitochondria): could not be stimulated |
| C=C1[C@@H]2CC[C@H]3[C@]4(C)C[C@H](O[C@@H]5O[C@H](CO)[C@@H](OS(=O)(=O)O)[C@H](OS(=O)(=O)O)[C@H]5OC(=O)CC(C)C)C[C@@H](C(=O)O)[C@H]4CC[C@]3(C2)[C@H]1O [ATR, atractyloside] | activated the mtPTP | no effect |  |
| Cc1c2oc3c(C)ccc(C(=O)N[C@@H]4C(=O)N[C@H](C(C)C)C(=O)N5CCC[C@H]5C(=O)N(C)CC(=O)N(C)[C@@H](C(C)C)C(=O)O[C@@H]4C)c3nc-2c(C(=O)N[C@@H]2C(=O)N[C@H](C(C)C)C(=O)N3CCC[C@H]3C(=O)N(C)CC(=O)N(C)[C@@H](C(C)C)C(=O)O[C@@H]2C)c(N)c1=O [Actinomycin D] (I: T[dV]P[Sar][NMeV] / II: T[dV]P[Sar][NMeV]; ester I:1-I:C, II:1-II:C; linker I:N-II:N via Actinocin(9to1)) |  |  | induction of apoptosis (mouse hepatocytes): did not induce apoptosis |
| CN(C)C(=O)/N=N/C(=O)N(C)C [DIA, diamide] | activated the mtPTP | activated the mtPTP |  |
| N#CC(C#N)=NNc1ccc(OC(F)(F)F)cc1 [FCCP, carbonyl cyanide p-(trifluoromethoxy)phenylhydrazone] |  |  | FCCP-induced mtPTP activation (mitochondrial swelling) (mtPTP [2]): responded equally well |
| CC(C)(C)OO [t-H2O2, Tert-butyl hydroperoxide] | activated the mtPTP | activated the mtPTP |  |
| TNFα |  |  | induction of apoptosis (mouse hepatocytes): did not induce apoptosis |
